System: normal human dermal fibroblasts (NHDF)
Test: Gene expression in NHDF, full transcriptome analysis with Affymetrix U219 microarray
Format: cell-based
Conditions: 10 mg/ml
Protocol: In the present study, the transcriptional effects (modulation of gene expression) of compounds 1, 2, 3 and 4 were evaluated on normal human dermal fibroblasts (NHDF) under basal conditions.
More specifically, the comparative analysis of the different transcriptomic profiles was performed using an Affymetrix GeneAtlas platform and the human “full transcriptome” U219 chip, which includes 36,000 transcripts and variants.
Fibroblasts were seeded in 24-well plates and cultured in culture medium for 24 hours. The medium was then replaced by assay medium and cells were incubated for further 24 hours. The medium was replaced by assay medium containing or not (control) the test compounds at different concentrations and the cells were preincubated for 24 hours. All experimental conditions were performed in triplicate. At the end of incubation, the culture supernatants were removed and the cells were washed in a phosphate buffered saline (PBS) solution and immediately frozen at −80° C.
Before RNA extraction, the replicates were pooled. Total RNA was extracted from each sample using TriPure Isolation Reagent® according to the supplier's instructions. The amount and quality of total RNA were evaluated for all samples using capillary electrophoresis (Bioanalyzer 2100, Agilent technologies). From each RNA, a labeled and amplified anti-sens RNA (aRNA) was obtained using GeneChip 3′IVT PLUS Kit (Affymetrix). For each labeled and amplified aRNA sample the profiles were evaluated before and after fragmentation using capillary electrophoresis (Bioanalyzer 2100, Agilent technologies). Hybridization of fragmented aRNA onto Affymetrix® U219 chip (36,000 transcripts and variants) was performed in the GeneAtlas™ fluidics Affymetrix® hybridization station for 20 hours at 45° C. U219 chip was analyzed using the GeneAtlas™ Imaging station (Affymetrix®—resolution 2 μm) to generate fluorescence intensity data.
Expression Console and Quality controls: data were normalized with the Expression Console (Affymetrix®) software using RMA algorithm. Then a quality control of the labeling and the hybridization was performed. Hybridization and labeling steps successfully passed the quality controls for these experiments.
Data reduction, Excel file description: once normalized with Expression Console, data were transferred into a Microsoft Excel® file in order to go further into data reduction.
Calculation and tools were added in order to rank and sort data, and finally to support data interpretation. Detection thresholds in terms of fold change were defined and applied on normalized data.
Results are considered and presented or commented per gene (and not probe). A probe set is a collection of probes designed to interrogate a given sequence of a gene. For data interpretation, the most important relative expression value obtained with one probe is considered to be representative of the corresponding gene. The file contains the following data: • Relative expression (RE) for each sample, • Fold change calculation, • Gene information.

[1] = relative expression adjusted to detection limit (<20), NHDF, 24 h
[2] = signed value, Tables 13-14, NHDF

C[C@H](NC(=O)[C@H](C)NC(=O)[C@@H](N)CCCCNCC(F)(F)[C@]1(O)O[C@H](CO)[C@H](O)[C@H](O)[C@H]1O)C(=O)O [Compound 1]
REadj2, PCYT2 [1]: 188.93 | REadj2, PLD1 [1]: 176.07 | REadj2, PTPLA [1]: 498.96 | REadj2, SOAT1 [1]: 390.22 | REadj2, SREBF1 [1]: 519.22 | REadj2, POR (relative expression adjusted to detection limit (<20), NHDF, 24 h, probe set 11716114_x_at): 256.70 | REadj2, HMGCS1 (relative expression adjusted to detection limit (<20), NHDF, 24 h, probe set 11716987_a_at): 875.52 | REadj2, EBP (relative expression adjusted to detection limit (<20), NHDF, 24 h, probe set 11717859_a_at): 582.73 | REadj2, FDPS (relative expression adjusted to detection limit (<20), NHDF, 24 h, probe set 11718366_s_at): 2391.43 | REadj2, MVK (relative expression adjusted to detection limit (<20), NHDF, 24 h, probe set 11719098_a_at): 135.62 | REadj2, PGS1 (relative expression adjusted to detection limit (<20), NHDF, 24 h, probe set 11724792_a_at): 118.91 | REadj2, KDSR (relative expression adjusted to detection limit (<20), NHDF, 24 h, probe set 11730180_s_at): 1037.81 | REadj2, KDSR (relative expression adjusted to detection limit (<20), NHDF, 24 h, probe set 11730181_s_at): 549.40 | REadj2, GBA (relative expression adjusted to detection limit (<20), NHDF, 24 h, probe set 11736100_a_at): 445.83 | REadj2, CHKA (relative expression adjusted to detection limit (<20), NHDF, 24 h, probe set 11736285_a_at): 104.91 | REadj2, CHKA (relative expression adjusted to detection limit (<20), NHDF, 24 h, probe set 11736286_a_at): 120.28 | REadj2, PHLDB2 (relative expression adjusted to detection limit (<20), NHDF, 24 h, probe set 11737039_a_at): 119.06 | REadj2, PHLDB2 (relative expression adjusted to detection limit (<20), NHDF, 24 h, probe set 11737041_a_at): 128.19 | REadj2, PHLDB2 (relative expression adjusted to detection limit (<20), NHDF, 24 h, probe set 11737042_s_at): 120.07 | REadj2, PHLDB2 (relative expression adjusted to detection limit (<20), NHDF, 24 h, probe set 11737043_x_at): 178.68 | REadj2, NPC1 (relative expression adjusted to detection limit (<20), NHDF, 24 h, probe set 11743916_a_at): 361.48 | REadj2, FADS1///MIR1908 (relative expression adjusted to detection limit (<20), NHDF, 24 h, probe set 11745459_a_at): 1633.20 | REadj2, NPC1 (relative expression adjusted to detection limit (<20), NHDF, 24 h, probe set 11746723_a_at): 192.21 | REadj2, MVK (relative expression adjusted to detection limit (<20), NHDF, 24 h, probe set 11747747_a_at): 83.27 | REadj2, POR (relative expression adjusted to detection limit (<20), NHDF, 24 h, probe set 11748368_x_at): 269.37 | REadj2, PGS1 (relative expression adjusted to detection limit (<20), NHDF, 24 h, probe set 11748428_a_at): 84.52 | REadj2, EBP (relative expression adjusted to detection limit (<20), NHDF, 24 h, probe set 11749332_x_at): 445.85 | REadj2, GBA (relative expression adjusted to detection limit (<20), NHDF, 24 h, probe set 11750975_x_at): 439.06 | REadj2, GBA (relative expression adjusted to detection limit (<20), NHDF, 24 h, probe set 11751085_a_at): 451.06 | REadj2, GBA (relative expression adjusted to detection limit (<20), NHDF, 24 h, probe set 11751086_x_at): 338.51 | REadj2, KDSR (relative expression adjusted to detection limit (<20), NHDF, 24 h, probe set 11751627_a_at): 533.05 | REadj2, FADS1///MIR1908 (relative expression adjusted to detection limit (<20), NHDF, 24 h, probe set 11752670_a_at): 2502.62 | REadj2, GBA (relative expression adjusted to detection limit (<20), NHDF, 24 h, probe set 11753440_x_at): 229.00 | REadj2, HMGCS1 (relative expression adjusted to detection limit (<20), NHDF, 24 h, probe set 11754918_s_at): 929.88 | REadj2, FADS1///MIR1908 (relative expression adjusted to detection limit (<20), NHDF, 24 h, probe set 11755251_x_at): 1571.10 | REadj2, FDPS (relative expression adjusted to detection limit (<20), NHDF, 24 h, probe set 11758249_s_at): 2098.38 | Fold change, ABCA1 [2]: 2.112 | Fold change, ABHD5 [2]: 2.634 | Fold change, ACAT2 [2]: 2.124 | Fold change, ACSS2 [2]: 2.288 | Fold change, ADORA2B [2]: 2.461 | Fold change, AKR1B1 [2]: 4.194 | Fold change, AKR1C1/AKR1C2 [2]: 2.597 | Fold change, ALDH1A3 [2]: −3.504 | Fold change, ANGPT1 [2]: −2.510 | Fold change, CD9 [2]: 2.337 | Fold change, CH25H [2]: −2.770 | Fold change, CHKA [2]: 2.999 | Fold change, CLN3 [2]: 2.570 | Fold change, CYP19A1 [2]: 2.736 | Fold change, CYP51A1 [2]: 2.202 | Fold change, DHCR7 [2]: 3.675 | Fold change, DHCR24 [2]: 2.267 | Fold change, EBP [2]: 2.685 | Fold change, EGR1 [2]: −2.928 | Fold change, FADS1 [2]: 4.196 | Fold change, FADS2 [2]: 2.642 | Fold change, FDPS [2]: 2.104 | Fold change, FGF2 [2]: 2.008 | Fold change, FOS [2]: −2.521 | Fold change, GBA [2]: 3.016 | Fold change, GPER1 [2]: 2.031 | Fold change, GRP [2]: −2.699 | Fold change, HMGCR [2]: 2.018 | Fold change, HMOX1 [2]: 5.168 | Fold change, HSD3B7 [2]: 2.132 | Fold change, HSD17B7 [2]: 2.443 | Fold change, HTR2B [2]: 2.118 | Fold change, IDI1 [2]: 2.013 | Fold change, IGFBP2 [2]: −2.717 | Fold change, INSIG1 [2]: 3.422 | Fold change, KDSR [2]: 2.288 | Fold change, LDLR [2]: 2.988 | Fold change, LPIN1 [2]: 2.458 | Fold change, LSS [2]: 2.527 | Fold change, MAP3K8 [2]: 3.713 | Fold change, ME1 [2]: 2.548 | Fold change, MVD [2]: 2.448 | Fold change, MVK [2]: 2.082 | Fold change, NGF [2]: −2.648 | Fold change, NPC1 [2]: 6.532 | Fold change, NRG1 [2]: −2.111 | Fold change, NSMAF [2]: 2.624 | Fold change, NTN1 [2]: 2.832 | Fold change, PCYT2 [2]: 2.412 | Fold change, PDE5A [2]: −3.902 | Fold change, PDK4 [2]: −2.280 | Fold change, PGS1 [2]: 2.410 | Fold change, PLAU [2]: −2.785 | Fold change, PLD1 [2]: 2.155 | Fold change, POR [2]: 2.200 | Fold change, PTGS1 [2]: 3.893 | Fold change, RAB27A [2]: 2.279 | Fold change, RUNX1 [2]: 2.441 | Fold change, S1PR1 [2]: 2.651 | Fold change, SCD [2]: 7.772 | Fold change, SEMA3A [2]: −3.169 | Fold change, SERINC2 [2]: 2.635 | Fold change, SLC1A3 [2]: 4.715 | Fold change, SOAT1 [2]: 2.012 | Fold change, SOCS3 [2]: 3.734 | Fold change, SREBF1 [2]: 3.237 | Fold change, ST6GALNAC5 [2]: 2.080 | Fold change, STC1 [2]: 3.016
